ChEMBL document CHEMBL1201862, “PubChem BioAssay data set” (2004)
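How tested: cells in 96-well plates exposed to compound for 48 hours at five concentrations. Abbreviation: GI50, concentration required for 50% inhibition of growth.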 Activity calls are given as the source filed them. Cut-off read from the data, not from the text of the source: active = GI50 up to about 1.1 µM and inactive = higher. Where a SMILES comes first, the peptide text is derived from it. [ ]: non-standard residue; d: D form. Phe(4-Cl) = N[CH](Cc1ccc(Cl)cc1)C(=O)O

Assays:
Assay in all cases: NCI tumour cell line growth inhibition, 48 h
SF-539 = test system: SF-539
HOP-62 = test system: HOP-62
SNB-19 = test system: SNB-19
SK-MEL-2 = test system: SK-MEL-2
NCI-H226 = test system: NCI-H226
M14 = test system: M14
HCC 2998 = test system: HCC 2998
COLO 205 = test system: COLO 205
SF-295 = test system: SF-295
HOP-92 = test system: HOP-92
TK-10 = test system: TK-10
EKVX = test system: EKVX
CAKI-1 = test system: CAKI-1
UACC-62 = test system: UACC-62
OVCAR-5 = test system: OVCAR-5
OVCAR-3 = test system: OVCAR-3
SW-620 = test system: SW-620
MOLT-4 = test system: MOLT-4

Measured: GI50

CC(=O)OCC(=O)[C@@]1(O)CC[C@H]2[C@@H]3CCC4=CC(=O)[C@H](C)C[C@]4(C)[C@H]3[C@@H](O)C[C@@]21C
inactive: SF-539 > 100 µM | HOP-62 > 100 µM | SNB-19 > 100 µM | SK-MEL-2 > 100 µM | NCI-H226 > 100 µM | M14 > 100 µM | HCC 2998 > 100 µM | COLO 205 > 100 µM | SF-295 > 100 µM | HOP-92 > 100 µM | TK-10 > 100 µM | EKVX > 100 µM | CAKI-1 > 100 µM | UACC-62 > 100 µM | OVCAR-5 > 100 µM | OVCAR-3 > 100 µM | SW-620 > 100 µM

CN(C)CC1CCC(=C2CCCC2)C1=O (stereo not given)
inactive: SF-539 20 µM | HOP-62 14.3 µM | SNB-19 > 63.7 µM | SK-MEL-2 18.4 µM | NCI-H226 17.9 µM | M14 8.3 µM | HCC 2998 18.2 µM | COLO 205 14.9 µM | SF-295 > 100 µM | HOP-92 5 µM | TK-10 11.5 µM | EKVX 18.6 µM | CAKI-1 > 100 µM | UACC-62 17.3 µM | OVCAR-5 17 µM | OVCAR-3 13.5 µM | MOLT-4 2.76 µM

CCOC(=O)c1c(-c2ccccc2)oc(-c2ccccc2)c1C(=O)OCC
inactive: SF-539 > 100 µM | HOP-62 > 100 µM | SNB-19 > 100 µM | SK-MEL-2 94.2 µM | NCI-H226 > 100 µM | M14 > 100 µM | HCC 2998 67.1 µM | COLO 205 99.1 µM | SF-295 > 100 µM | HOP-92 > 100 µM | TK-10 > 100 µM | EKVX > 100 µM | UACC-62 > 100 µM | OVCAR-5 > 100 µM | OVCAR-3 > 100 µM | MOLT-4 48.1 µM | SW-620 > 100 µM

CC12CCc3ccccc3C1=NNC(=O)C2 (stereo not given)
inactive: SF-539 > 100 µM | HOP-62 > 100 µM | SNB-19 > 100 µM | SK-MEL-2 > 100 µM | NCI-H226 > 100 µM | M14 > 100 µM | HCC 2998 > 100 µM | COLO 205 > 100 µM | SF-295 > 100 µM | HOP-92 > 100 µM | TK-10 > 100 µM | EKVX > 100 µM | CAKI-1 > 100 µM | OVCAR-5 > 100 µM | OVCAR-3 > 100 µM | MOLT-4 > 100 µM | SW-620 > 100 µM

COC(=O)C1(F)C(=O)NC(=O)NC1OC (stereo not given)
inactive: SF-539 2.58 µM | HOP-62 25.5 µM | SNB-19 > 100 µM | SK-MEL-2 > 100 µM | NCI-H226 > 100 µM | COLO 205 68.5 µM | SF-295 > 100 µM | HOP-92 45.7 µM | TK-10 > 100 µM | CAKI-1 83.9 µM | UACC-62 18.6 µM | OVCAR-5 > 100 µM | OVCAR-3 94.2 µM | MOLT-4 > 100 µM | SW-620 > 100 µM

CCCCCCCC1(c2ccc(N)cc2)CCC(=O)NC1=O (stereo not given)
inactive: HOP-62 32.9 µM | SNB-19 47.4 µM | SK-MEL-2 35.8 µM | M14 32.4 µM | HCC 2998 29.8 µM | COLO 205 21.9 µM | SF-295 30.4 µM | HOP-92 15.2 µM | TK-10 49.7 µM | EKVX 23.5 µM | CAKI-1 27.4 µM | UACC-62 26.7 µM | OVCAR-5 31.6 µM | OVCAR-3 22.6 µM | MOLT-4 23.8 µM | SW-620 58.2 µM

CC1=C(c2cc(C(=O)Nc3cccc(C(F)(F)F)c3)nc(NC#N)n2)Sc2ccccc2N1
inactive: SF-539 > 100 µM | HOP-62 > 100 µM | SNB-19 > 100 µM | SK-MEL-2 > 100 µM | NCI-H226 > 100 µM | M14 > 100 µM | HCC 2998 > 100 µM | COLO 205 > 100 µM | SF-295 > 100 µM | HOP-92 > 100 µM | TK-10 > 100 µM | EKVX > 100 µM | CAKI-1 > 100 µM | UACC-62 > 100 µM | OVCAR-5 > 100 µM | OVCAR-3 > 100 µM | MOLT-4 > 100 µM | SW-620 > 100 µM

COc1ccc2c(c1)NC1(O)c3ccccc3C(=O)C21O (stereo not given)
inactive: SF-539 > 100 µM | HOP-62 > 100 µM | SNB-19 > 100 µM | NCI-H226 > 100 µM | M14 > 100 µM | COLO 205 > 100 µM | SF-295 > 100 µM | HOP-92 > 100 µM | TK-10 > 100 µM | CAKI-1 > 100 µM | UACC-62 > 100 µM | OVCAR-3 > 100 µM | MOLT-4 > 100 µM | SW-620 > 100 µM

COC(=O)C1=C(c2ccc(Cl)cc2)C(O)NC(NN)=N1 (stereo not given)
inactive: SF-539 > 100 µM | HOP-62 > 100 µM | SNB-19 > 100 µM | SK-MEL-2 > 100 µM | NCI-H226 > 100 µM | M14 > 100 µM | HCC 2998 > 100 µM | SF-295 > 100 µM | HOP-92 > 100 µM | TK-10 > 100 µM | EKVX > 100 µM | CAKI-1 > 100 µM | UACC-62 > 100 µM | OVCAR-5 > 100 µM | OVCAR-3 > 100 µM | MOLT-4 > 100 µM | SW-620 > 100 µM

O=C1c2ccccc2C(Br)(Br)c2ccccc21
inactive: SF-539 57.8 µM | HOP-62 > 10 µM | SNB-19 > 31.6 µM | SK-MEL-2 > 31.6 µM | NCI-H226 > 31.6 µM | M14 > 31.6 µM | HCC 2998 > 31.6 µM | COLO 205 > 31.6 µM | SF-295 > 31.6 µM | HOP-92 > 100 µM | TK-10 > 100 µM | EKVX > 100 µM | CAKI-1 > 10 µM | UACC-62 > 100 µM | OVCAR-5 > 31.6 µM | OVCAR-3 > 31.6 µM | MOLT-4 > 31.6 µM | SW-620 > 31.6 µM

Cc1cc(C)nc(NS(=O)(=O)c2ccc(NC(=O)c3cccc4c(Nc5ccc(S(N)(=O)=O)cc5)c5ccccc5nc34)cc2)n1
inactive: SF-539 3.67 µM | HOP-62 26.7 µM | SNB-19 4.02 µM | SK-MEL-2 10.2 µM | NCI-H226 > 100 µM | M14 > 82.6 µM | HCC 2998 14.8 µM | COLO 205 26.6 µM | SF-295 > 66.5 µM | HOP-92 20.7 µM | TK-10 > 74.6 µM | EKVX > 100 µM | CAKI-1 > 100 µM | UACC-62 2.88 µM | OVCAR-5 > 100 µM | OVCAR-3 9.42 µM | MOLT-4 6.71 µM | SW-620 20.6 µM

Cc1ccc2c(c1)C(c1cccc3ccccc13)OC2=O (stereo not given)
inactive: HOP-62 21.4 µM | SNB-19 64.7 µM | SK-MEL-2 > 100 µM | NCI-H226 42.9 µM | M14 41 µM | HCC 2998 > 100 µM | COLO 205 > 100 µM | SF-295 61 µM | TK-10 31.6 µM | EKVX 69.8 µM | CAKI-1 > 100 µM | UACC-62 > 100 µM | OVCAR-5 > 100 µM | OVCAR-3 > 100 µM | MOLT-4 > 100 µM | SW-620 > 100 µM

CC(O)C(NC(=O)C(Cc1ccccc1)NC(=O)C(NC(=O)C(CCCCN)NC(=O)C(Cc1c[nH]c2ccccc12)NC(=O)C(Cc1ccc(O)cc1)NC(=O)C(Cc1ccc(Cl)cc1)NC(=O)C(N)Cc1ccccc1)C(C)O)C(N)=O (stereo not given) (H-F[Phe(4-Cl)]YWKTFT-NH2; configuration not given here)
inactive: SF-539 20 µM | HOP-62 20.5 µM | SNB-19 18.4 µM | SK-MEL-2 19.9 µM | M14 22.7 µM | HCC 2998 25.4 µM | COLO 205 25.9 µM | SF-295 8.53 µM | EKVX 16.4 µM | CAKI-1 21.2 µM | UACC-62 19.1 µM | OVCAR-3 17.4 µM | MOLT-4 25.9 µM

COC1=CC2(C=CC1=O)c1cc(OC)c(OC)cc1CCN2C(=O)c1ccccc1 (stereo not given)
inactive: SF-539 > 100 µM | SNB-19 > 100 µM | NCI-H226 > 100 µM | M14 > 100 µM | HCC 2998 > 100 µM | COLO 205 > 100 µM | SF-295 > 100 µM | HOP-92 > 100 µM | TK-10 > 100 µM | EKVX > 100 µM | CAKI-1 > 100 µM | UACC-62 > 100 µM | OVCAR-3 > 100 µM | MOLT-4 > 100 µM | SW-620 > 100 µM

CCCCC#COP(=O)(OCC)OCC
inactive: SF-539 > 100 µM | HOP-62 > 100 µM | SNB-19 > 100 µM | SK-MEL-2 > 100 µM | NCI-H226 > 100 µM | M14 > 100 µM | HCC 2998 > 100 µM | COLO 205 > 100 µM | SF-295 > 100 µM | TK-10 > 100 µM | EKVX > 100 µM | CAKI-1 > 100 µM | UACC-62 > 100 µM | OVCAR-5 > 100 µM | OVCAR-3 > 100 µM | MOLT-4 > 100 µM | SW-620 > 100 µM

NC(=S)/N=C(/c1nc2ccc(Cl)cc2nc1O)C(O)c1ccccc1Cl (stereo not given)
inactive: SF-539 > 100 µM | HOP-62 > 100 µM | SK-MEL-2 > 100 µM | NCI-H226 > 100 µM | M14 > 100 µM | HCC 2998 > 100 µM | COLO 205 > 100 µM | SF-295 > 100 µM | HOP-92 > 100 µM | TK-10 > 100 µM | EKVX > 100 µM | UACC-62 > 100 µM | OVCAR-5 > 100 µM | MOLT-4 > 100 µM | SW-620 > 100 µM
